Assay results: ChEMBL document CHEMBL4138048, “Synthesis of substituted 2H-benzo[e]indazole-9-carboxylate as a potent antihyperglycemic agent that may act through IRS-1, Akt and GSK-3β pathways” (Medchemcomm, 2017)
Calls of active or inactive are those of the source. The calls are words filed in the database; no cut-off is given here.

System: HepG2
Experiment: Stimulation of [3H]2-deoxyglucose uptake in human HepG2 cells at 10 uM incubated for 16 hrs by scintillation counting method
Format: functional, cell-based

## CN(C)C(=N)NC(=N)N
  Activity: Active
